According to patent US20160309717A1, “Compounds with Nematicidal Activity” (BAYER CROPSCIENCE AKTIENGESELLSCHAFT, priority 2013, published 2016):

Columns and labels:
[1] = Measurement of log P values by HPLC on reversed phase columns (EEC directive 79/831 Annex V.A8); type: physicochemical; settings: for LogP [b] / chromatographic logP: LC-MS at pH 2.7, 0.1% formic acid in water / acetonitrile; for LogP [c]: LC-MS at pH 7.8, 0.001 molar ammonium hydrogen carbonate in water / acetonitrile; for chromatographic logP: reversed phase HPLC column, read-out: LogP [b]
Method: Measurement of Log P-Values:
Measurement of log P values was performed according EEC directive 79/831 Annex V.A8 by HPLC (High Performance Liquid Chromatography) on reversed phase columns with the following methods:
^[a] Measurement was done at pH 2.3 with 0.1% phosphoric acid and acetonitrile as eluent with a linear gradient from 10% acetonitrile to 95% acetonitrile.
^[b]measurement of LC-MS was done at pH 2.7 with 0.1% formic acid in water and with acetonitrile (contains 0.1% formic acid) as eluent with a linear gradient from 10% acetonitrile to 95% acetonitrile.
^[c] Measurement with LC-MS was done at pH 7.8 with 0.001 molar ammonium hydrogen carbonate solution in water as eluent with a linear gradient from 10% acetonitrile to 95% acetonitrile.
Calibration was done with not branched alkan2-ones (with 3 to 16 carbon atoms) with known log P-values (measurement of log P values using retention times with linear interpolation between successive alkanones). Lambda-maX-values were determined using UV-spectra from 200 nm to 400 nm and the peak values of the chromatographic signals.

[2] = tested on: Meloidogyne incognita; test: Meloidogyne incognita test, gall formation on salad seedlings in sand; type: in vivo; settings: application rate 20 ppm; after 14 days; 100% = no galls found
Method: Solvent: 125.0 Parts by Weight of Acetone
To produce a suitable preparation of active compound, 1 part by weight of active compound is mixed with the stated amount of solvent, and the concentrate is diluted with water to the desired concentration.
Vessels are filled with sand, a solution of the active ingredient, a suspension containing eggs and larvae of the southern root-knot nematode (Meloidogyne incognita) and salad seeds. The salad seeds germinate and the seedlings grow. Galls develop in the roots.
After 14 days the nematicidal activity is determined on the basis of the percentage of gall formation. 100% means no galls were found and 0% means the number of galls found on the roots of the treated plants was equal to that in untreated control plants.

[3] = tested on: Cooperia curticei; test: Cooperia curticei test (COOPCU), larval mortality
Method: (§1) Solvent: Dimethyl Sulfoxide
(§2) To produce a suitable preparation of active compound, 10 mg of active compound are dissolved in 0.5 ml solvent, and the concentrate is diluted with “Ringer's solution” to the desired concentration.
Approximately 40 nematode larvae (Cooperia curticei) are transferred into a test tube containing the compound solution.
After 5 days percentage of larval mortality is recorded. 100% efficacy means all larvae are killed; 0% efficacy means no larvae are killed.

[4] = tested on: Haemonchus contortus; test: microbe, parasite or virus in culture; settings: 120 h, read-out: activity (percentage of larval mortality)
Method: as §1, §2
Approximately 40 larvae of the red stomach worm (Haemonchus contortus) are transferred into a test tube containing compound solution.
After 5 days percentage of larval mortality are recorded. 100% efficacy means all larvae are killed, 0% efficacy means no larvae are killed.

Row | SMILES | LogP [b] [1] | LogP [c] [1] | also measured
1 | O=C(NCC1(c2cccc(Cl)n2)CC1)c1cccnc1C(F)(F)F [Example 1] | 2,42 | 2,41 | 
2 | O=C(NCC1(c2cccc(Cl)n2)CC1)c1c(F)cccc1F [Example 2] | 2,63 | 2,62 | 
3 | O=C(NCC1(c2cccc(Cl)n2)CC1)c1ccccc1I [Example 3] | 2,98 | 2,96 | 
4 | O=C(NCC1(c2cccc(Cl)n2)CC1)c1ccccc1C(F)(F)F [Example 4] | 3 | 2,99 | 
5 | O=C(NCC1(c2cccc(Cl)n2)CC1)c1cccnc1Cl [Example 5] | ^[b]2,11 ^[c]2,11 | ^[b]2,11 ^[c]2,11 | 
6 | Cn1cc(C(=O)NCC2(c3cccc(Cl)n3)CC2)c(C(F)F)n1 [Example 6] | 2,25 | 2,24 | 
7 | O=C(NCC1(c2ccc(Br)cn2)CC1)c1ccccc1C(F)(F)F [Example 7] | ^[b]3,1 ^[c]3,1 | ^[b]3,1 ^[c]3,1 | 
8 | O=C(NCC1(c2ccc(Br)cn2)CC1)c1ccccc1I [Example 8] | 3,1 | 3,09 | 
9 | O=C(NCC1(c2ccc(Br)cn2)CC1)c1c(F)cccc1F [Example 9] | ^[b]2,71 ^[c]2,71 | ^[b]2,71 ^[c]2,71 | 
10 | O=C(NCC1(c2ccc(Br)cn2)CC1)c1cccnc1C(F)(F)F [Example 10] | 2,51 | 2,5 | nematicidal activity on the basis of the percentage of gall formation [2]: 90%
11 | O=C(NCC1(c2ccc(Br)cn2)CC1)c1cccnc1Cl [Example 11] | 2,17 | 2,18 | 
12 | Cn1cc(C(=O)NCC2(c3ccc(Br)cn3)CC2)c(C(F)F)n1 [Example 12] | 2,31 | 2,33 | 
13 | Cn1cc(C(=O)NCC2(c3ncc(C(F)(F)F)cc3Cl)CC2)c(C(F)F)n1 [Example 13, N-[[1-[3-chloro-5-(trifluoromethyl)-2-pyridyl]cyclopropyl]methyl]-3-(difluoromethyl)-1-methyl-pyrazole-4-carboxamide] |  |  | mortality at 20 ppm ([3]; Cooperia curticei, 120 h, read-out: activity (percentage of larval mortality)): 100%; mortality at 20 ppm [4]: 80%; nematicidal activity on the basis of the percentage of gall formation [2]: 100%; chromatographic logP [1]: 2.63
14 | O=C(NCC1(c2ncc(Br)cc2Cl)CC1)c1cccnc1C(F)(F)F [Example 14, N-{[1-(5-bromo-3-chloropyridin-2-yl)cyclopropyl]methyl}-2-(trifluoromethyl)nicotinamide] |  |  | chromatographic logP [1]: 2.88
15 | O=C(NCC1(c2ccc(Cl)cn2)CC1)c1ccccc1C(F)(F)F [Example 15] | 2,91 | 2,96 | activity (percentage of larval mortality) ([3]; application rate 20 ppm, after 5 days, 100% = all larvae killed): 90%; nematicidal activity on the basis of the percentage of gall formation [2]: 70%
